# Measured values published in patent US20220074941A1, “HSP90 COMBINATION THERAPY” (Sloan-Kettering Institute for Cancer Research, priority 2011, published 2022).
# Assays:
# [1] = test system: Hsp90 from SKBr3 cellular extracts; test: Fluorescence polarization (FP) competition assay with GM-cy3B; type: binding; conditions: for IC50: FP competition with GM-cy3B, SKBr3 lysate, 4° C. for 24 h, read-out: IC50 (nM), binding affinity for Hsp90 from SKBr3 cellular extracts
# From the text: The attachment of small molecules to a solid support is a very useful method to probe their target and the target's interacting partners. […] Perhaps the most crucial aspects in designing such chemical probes are determining the appropriate site for attachment of the small molecule ligand, and designing an appropriate linker between the molecule and the solid support. Our strategy to design Hsp90 chemical probes entails several steps. First, in order to validate the optimal linker length and its site of attachment to the Hsp90 ligand, the linker-modified ligand was docked onto an appropriate X-ray crystal structure of Hsp90α. Second, the linker-modified ligand was evaluated in a fluorescent polarization (FP) assay that measures competitive binding to Hsp90 derived from a cancer cell extract. […] These steps are important to ensure that the solid-support immobilized molecules maintain a strong affinity for Hsp90. Finally, the linker-modified small molecule was attached to the solid support, and its interaction with Hsp90 was validated by incubation with an Hsp90-containing cell extract.
# Briefly, FP measurements were performed on an Analyst GT instrument (Molecular Devices, Sunnyvale, Calif.). […] Drugs were added in triplicate wells. […] The assay plate was incubated on a shaker at 4° C. for 24 h and the FP values in mP were measured. The fraction of tracer bound to Hsp90 was correlated to the mP value and plotted against values of competitor concentrations. […] All experimental data were analyzed using SOFTmax Pro 4.3.1 and plotted using Prism 4.0 (Graphpad Software Inc., San Diego, Calif.).
# [2] = test system: Hsp90 complexes in K562 cell extract; test: Nano-LC-MS/MS of PU-beads pull-downs; type: binding; conditions: protein identified in PU-beads pull-down of K562 cell extract, QSTAR-Elite QTof MS
# Procedure: Protein cargo isolated from cell lysate with PU-beads or control-beads was subjected to proteomic analysis by nano liquid chromatography coupled to tandem mass spectrometry (nano LC-MS/MS). Initial protein identification was performed using the Mascot search engine, and was further evaluated using Scaffold Proteome Software (Tables 5a-d).
# (§1) Lysates prepared as mentioned above were first pre-cleaned by incubation with control beads overnight at 4° C. […] Beads were washed with lysis buffer, proteins eluted by boiling in 2% SDS, separated on a denaturing gel and Coomassie stained according to manufacturer's procedure (Biorad). […] Analyses of the batch purified pools were done using a QSTAR-Elite hybrid quadrupole time-of-flight mass spectrometer (QTof MS) (AB/MDS Sciex), equipped with a nano spray ion source. Peptide mixtures (in 20 μL) are loaded onto a trapping guard column (0.3×5-mm PepMap C18 100 cartridge from LC Packings) using an Eksigent nano MDLC system (Eksigent Technologies, Inc) at a flow rate of 20 μL/min. […] Electrospray ionization (ESI) needle voltage was set at about 1800 V. The mass analyzer is operated in automatic, data-dependent MS/MS acquisition mode, with the threshold set to 10 counts per second of doubly or triply charged precursor ions selected for fragmentation scans. Survey scans of 0.25 sec are recorded from 400 to 1800 amu; up to 3 MS/MS scans are then collected sequentially for the selected precursor ions, recording from 100 to 1800 amu. The collision energy is automatically adjusted in accordance with the m/z value of the precursor ions selected for MS/MS. Selected precursor ions are excluded from repeated selection for 60 sec after the end of the corresponding fragmentation duty cycle. […] One missed tryptic cleavage site was allowed, precursor ion mass tolerance=0.4 Da fragment ion mass tolerance=0.4 Da, protein modifications were allowed for Met-oxide, Cys-acrylamide and N-terminal acetylation. MudPit scoring was typically applied with ‘require bold red’ activated, and using significance threshold score p<0.05. Unique peptide counts (or ‘spectral counts’) and percent sequence coverages for all identified proteins were exported to Scaffold Proteome Software (version 2_06_01, www.proteomesoftware.com) for further bioinformatic analysis (Table 5a). Using output from Mascot, Scaffold validates, organizes, and interprets mass spectrometry data, allowing more easily to manage large amounts of data, to compare samples, and to search for protein modifications.
# [3] = test system: Hsp90 complexes in Mia-PaCa-2 cell extract; test: Nano-LC-MS/MS of PU-beads pull-downs; type: binding, human; conditions: protein identified in PU-beads pull-down of Mia-PaCa-2 cell extract; QSTAR-Elite QTof MS
# Procedure: as §1
IC50 [1] [nM],Compound,loss in potency as compared to SNX-2112 ([1]; FP assay) [fold],"Number of Assigned Spectra, K562 Prep 1 [2]","Number of Assigned Spectra, K562 Prep 2 [2]","Number of Assigned Spectra, Mia-Paca 2 [3]"
19.8,"NCCCCCCNCCCn1c(Sc2cc3c(cc2I)OCO3)nc2c(N)ncnc21 [Compound 5, N^1-(3-(6-Amino-8-(6-iodobenzo[d][1,3]dioxol-5-ylthio)-9H-purin-9-yl)propyl)hexane-1,6-diamine]",,,,
7,"CCNC(=O)c1noc(-c2cc(C(C)C)c(O)cc2O)c1-c1ccc(CNCCCCCCN)cc1 [Compound 10, 4-(4-((6-Aminohexylamino)methyl)phenyl)-5-(2,4-dihydroxy-5-isopropylphenyl)-N-ethylisoxazole-3-carboxamide]",,,,
210,"CC1(C)CC(=O)c2c(C(F)(F)F)nn(-c3ccc(C(N)=O)c(N[C@H]4CC[C@H](N)CC4)c3)c2C1 [Compound 18, 2-(trans-4-Aminocyclohexylamino)-4-(6,6-dimethyl-4-oxo-3-(trifluoromethyl)-4,5,6,7-tetrahydro-1H-indazol-1-yl)benzamide]",~14,,,
24.7,"CC1(C)CC(=O)c2c(C(F)(F)F)nn(-c3ccc(C(N)=O)c(N[C@H]4CC[C@H](NC(=O)CCCCCN)CC4)c3)c2C1 [Compound 20, 2-(trans-4-(6-Aminohexanamido)cyclohexylamino)-4-(6,6-dimethyl-4-oxo-3-(trifluoromethyl)-4,5,6,7-tetrahydro-1H-indazol-1-yl)benzamide]",,,,
,AIFM1,,2,0,0
,BAX,,3,0,6
,BCL7C,,2,0,0
,CHD4,,12,45,2
,DICER1,,8,3,1
,FLNA,,26,91,0
,FLNC,,55,183,0
,GNL1,,2,1,0
,HSPG2,,4,9,0
,INF2,,0,0,3
,KIF14,,1,1,0
,MLLT4,,1,2,0
,NUMA1,,4,4,4
,PHB2,,8,0,0
,PRAME,,4,0,0
,SAMHD1,,11,2,6
,SPTA1,,43,62,0
,TJP1,,6,3,0
,TLE1,,5,2,1
,TP53BP1,,0,6,3
,ZZEF1,,0,0,1
